From patent US4205077A, “Benzimidazole sulphides as anthelmintic agents” (Ciba-Geigy Corporation, priority 1977, dated 1980)

Experiments:
[1] = Acute toxicity in rabbits; settings: rabbit, in vivo, oral
in vivo = settings: rat, po
Acute toxicity in rats = settings: rat, in vivo, topical or ocular

`S=c1[nH]c2cc(Cl)c(Oc3ccc(Cl)cc3Cl)cc2[nH]1` [Example 1/2, 5-chloro-6-(2',4'-dichlorophenoxy)-2H-1,3-dihydro-benzimidazole-2-thione] gave an LD50 [1] of over 6000 mg/kg, an LD50 (in vivo) of 3100 mg/kg and an LD50 (Acute toxicity in rats) of over 3000 mg/kg.
